Values joined by “and” are separate entries in the source; they are usually repeats but may differ in a detail not shown here. Equal entries are not always repeated.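 How tested: cells in 96-well plates exposed to compound for 48 hours at five concentrations. GI50 is the concentration that inhibits growth by half. TGI: total growth inhibition.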
Tests used:
Experiment in all cases: NCI tumour cell line growth inhibition, 48 h
[1] = system: HOP-62 NSCLC
[2] = system: CAKI-1 renal
[3] = system: HCT-116 colon
[4] = system: UACC-257 melanoma
[5] = system: A549 NSCLC
[6] = system: SF-295 CNS
[7] = system: KM12 colon
[8] = system: K-562 leukemia
[9] = system: COLO 205 colon
[10] = system: SW-620 colon
[11] = system: HL-60(TB) leukemia
[12] = system: KM20L2 colon
[13] = system: OVCAR-5 ovarian
[14] = system: NCI-H23 lung
[15] = system: SK-MEL-28 melanoma
[16] = system: OVCAR-4 ovarian
[17] = system: RXF 393 renal
[18] = system: P388/ADR leukemia
[19] = system: M19-MEL melanoma
[20] = system: SF-268 CNS
[21] = system: SNB-78 CNS
[22] = system: MOLT-4 leukemia
[23] = system: U251 CNS
[24] = system: OVCAR-8 ovarian
[25] = system: HCC-2998 colon
[26] = system: NCI-H226 lung
[27] = system: MALME-3M melanoma
[28] = system: P388 leukemia
[29] = system: LOX IMVI melanoma
[30] = system: XF 498 CNS
[31] = system: DMS 273 small cell lung
[32] = system: HT29 colon
[33] = system: SK-MEL-2 melanoma
[34] = system: SN12C renal
[35] = system: SK-MEL-5 melanoma
[36] = system: SK-OV-3 ovarian
[37] = system: RPMI-8226 leukemia
[38] = system: OVCAR-3 ovarian
[39] = system: HOP-92 NSCLC
[40] = system: DMS 114 small cell lung
[41] = system: SF-539 CNS
[42] = system: NCI-H460 lung
[43] = system: HOP-18 NSCLC
[44] = system: UACC-62 melanoma
[45] = system: MCF7 breast
[46] = system: NCI-H522 lung
[47] = system: NCI/ADR-RES ovarian
[48] = system: UO-31 renal
[49] = system: SNB-19 CNS
[50] = system: DLD-1 colon
[51] = system: IGROV1 ovarian
[52] = system: SR leukemia
[53] = system: A498 renal
[54] = system: TK-10 renal
[55] = system: EKVX NSCLC
[56] = system: 786-0 renal
[57] = system: RXF-631 renal
[58] = system: ACHN renal
[59] = system: M14 melanoma
[60] = system: HCT-15 colon
[61] = system: LXFL 529 NSCLC
[62] = system: SNB-75 CNS
[63] = system: SN12K1 renal
[64] = system: CCRF-CEM leukemia

COC1=C(C)C(=O)C2=C(C1=O)[C@@H]1[C@@H]3Cc4c(OC(=O)CO)c(C)c(OC)c(O)c4[C@H](CNC(=O)C(C)=O)N3[C@@H](C#N)[C@H](C2)N1C
TGI [1]: 1.16 µM
TGI [2]: 7.87 µM
TGI [3]: 12.1 µM
TGI [4]: 0.0364 µM
TGI [5]: 49 µM
TGI [6]: 2.28 µM
TGI [7]: 2.05 µM
TGI [8]: 7.77 µM
TGI [9]: < 0.0309 µM
TGI [10]: 3.24 µM
TGI [11]: 2.75 µM
TGI [12]: 0.686 µM
TGI [13]: 0.447 µM
TGI [14]: < 0.0176 µM
TGI [15]: 1.2 µM
TGI [16]: 0.484 µM
TGI [17]: 0.0392 µM
TGI [18]: 1.82 µM
TGI [19]: 0.0463 µM
TGI [20]: 0.208 µM
TGI [21]: 0.998 µM
TGI [22]: 0.173 µM
TGI [23]: 4.09 µM
TGI [24]: 0.684 µM
TGI [25]: 0.226 µM
TGI [26]: 0.834 µM
TGI [27]: 0.351 µM
TGI [28]: 20.5 nM
TGI [29]: < 0.01 µM
TGI [30]: < 0.01 µM
TGI [31]: 0.065 µM
TGI [32]: 10.6 µM
TGI [33]: 0.0359 µM
TGI [34]: 10.8 µM
TGI [35]: 0.0393 µM
TGI [36]: 28.6 µM
TGI [37]: 0.389 µM
TGI [38]: 0.0366 µM
TGI [39]: < 0.0258 µM
TGI [40]: < 0.01 µM
TGI [41]: 0.24 µM
TGI [42]: 1.83 µM
TGI [43]: 0.0966 µM
TGI [44]: < 0.0368 µM
TGI [45]: 13.9 µM
TGI [46]: < 0.0139 µM
TGI [47]: 17.1 µM
TGI [48]: 0.362 µM

CCCCCCCCCCC(=O)CC(=O)c1c(O)cccc1O
TGI [49]: > 100 µM
TGI [50]: > 100 µM
TGI [1]: 72.9 µM
TGI [2]: > 100 µM
TGI [3]: 41.8 µM
TGI [4]: 96 µM
TGI [51]: > 100 µM
TGI [5]: > 100 µM
TGI [6]: > 100 µM
TGI [7]: > 100 µM
TGI [8]: 81.3 µM
TGI [52]: > 100 µM
TGI [9]: > 100 µM
TGI [10]: > 100 µM
TGI [11]: 37.3 µM
TGI [12]: > 100 µM
TGI [13]: 49.1 µM
TGI [53]: > 100 µM
TGI [54]: > 100 µM
TGI [14]: 81.7 µM
TGI [15]: > 100 µM
TGI [16]: > 100 µM
TGI [17]: 72.5 µM
TGI [55]: > 100 µM
TGI [19]: 67.1 µM
TGI [20]: > 100 µM
TGI [21]: > 100 µM
TGI [22]: 59 µM
TGI [23]: 69.5 µM
TGI [24]: > 100 µM
TGI [25]: > 100 µM
TGI [26]: 63.6 µM
TGI [27]: > 100 µM
TGI [56]: > 100 µM
TGI [57]: > 100 µM
TGI [58]: 91.3 µM
TGI [59]: > 100 µM
TGI [29]: 37 µM
TGI [30]: 46.2 µM
TGI [31]: 58.2 µM
TGI [32]: > 100 µM
TGI [34]: > 100 µM
TGI [35]: 72.8 µM
TGI [36]: > 100 µM
TGI [37]: 50.2 µM
TGI [60]: > 100 µM
TGI [38]: 63.7 µM
TGI [39]: 82 µM
TGI [40]: 72 µM
TGI [41]: > 100 µM
TGI [42]: > 100 µM
TGI [61]: > 100 µM
TGI [43]: 98.7 µM
TGI [44]: > 100 µM
TGI [46]: 90.4 µM
TGI [48]: 85.9 µM
TGI [62]: > 100 µM

CC/C=C\C/C=C\C/C=C\CCCCCCCC(=O)OC
TGI [49]: > 100 µM
TGI [50]: > 100 µM
TGI [1]: > 100 µM
TGI [2]: > 100 µM
GI50 [3]: 70.6 µM
TGI [3]: > 100 µM
TGI [4]: > 100 µM
TGI [51]: > 100 µM
TGI [5]: > 100 µM
TGI [6]: > 100 µM
TGI [7]: > 100 µM
GI50 [8]: 39.4 µM
TGI [8]: > 100 µM
GI50 [9]: > 100 µM
TGI [9]: > 100 µM
TGI [10]: > 100 µM
TGI [11]: 49.9 µM
GI50 [12]: > 100 µM
TGI [12]: > 100 µM
TGI [13]: > 100 µM
TGI [53]: > 100 µM
TGI [14]: > 100 µM
TGI [15]: > 100 µM
TGI [16]: > 100 µM
TGI [55]: > 100 µM
TGI [18]: 66.3 µM
GI50 [19]: 45.1 µM
TGI [19]: > 100 µM
TGI [20]: > 100 µM
GI50 [21]: > 100 µM
TGI [21]: > 100 µM
TGI [22]: > 100 µM
TGI [23]: > 100 µM
GI50 [24]: 20.5 nM
TGI [24]: 11.8 µM and > 100 µM
TGI [25]: > 100 µM
TGI [26]: > 100 µM
TGI [27]: > 100 µM
GI50 [29]: 25 µM
TGI [29]: 68.4 µM and 38.3 µM
TGI [30]: > 100 µM
TGI [31]: > 100 µM
TGI [32]: > 100 µM
TGI [33]: > 100 µM
TGI [34]: > 100 µM
TGI [35]: > 100 µM
TGI [36]: > 100 µM
GI50 [37]: 19.8 µM
TGI [37]: 69.9 µM and > 100 µM
TGI [60]: > 100 µM
TGI [38]: > 100 µM
TGI [39]: > 100 µM
GI50 [40]: 83.3 µM
TGI [40]: > 100 µM
TGI [41]: > 100 µM
TGI [42]: > 100 µM
TGI [63]: > 100 µM
TGI [43]: > 100 µM
TGI [44]: > 100 µM
GI50 [45]: 37.8 µM
TGI [45]: > 100 µM
TGI [46]: > 100 µM
TGI [47]: > 100 µM
GI50 [64]: 3.72 µM
TGI [64]: > 100 µM
TGI [48]: > 100 µM
GI50 [62]: > 100 µM
TGI [62]: > 100 µM

O=S1c2ccccc2N=C(c2cccc3ccccc23)CC1c1cccc2ccccc12 (stereo unspecified)
TGI [49]: 66.7 µM
TGI [50]: 62.8 µM
TGI [1]: > 100 µM
TGI [2]: 71.2 µM
TGI [3]: 39.3 µM
TGI [4]: 31.2 µM
TGI [51]: 34 µM
TGI [5]: 36.7 µM
TGI [6]: 71.2 µM
TGI [7]: 32 µM
TGI [8]: 60.5 µM
TGI [52]: 49.2 µM
TGI [9]: 37.6 µM
TGI [10]: 37.5 µM
TGI [11]: 30.5 µM
TGI [12]: > 100 µM
TGI [13]: 58.3 µM
TGI [53]: 39.2 µM
TGI [54]: 89.3 µM
TGI [14]: 39.1 µM
TGI [15]: 20.6 µM
TGI [16]: 27.8 µM
TGI [17]: 38.7 µM
TGI [55]: 84.1 µM
TGI [19]: 4.33 µM
TGI [20]: 57.5 µM
TGI [21]: > 100 µM
TGI [22]: 55.3 µM
TGI [23]: 37.7 µM
TGI [24]: 46.3 µM
TGI [25]: 31.8 µM
TGI [26]: 42.2 µM
TGI [27]: 37.4 µM
TGI [56]: 76.6 µM
TGI [57]: > 100 µM
TGI [58]: 56.4 µM
TGI [59]: 28.1 µM
TGI [29]: 27.9 µM
TGI [30]: 37.5 µM
TGI [31]: > 100 µM
TGI [32]: 49.5 µM
TGI [33]: 40.9 µM
TGI [34]: 30.5 µM
TGI [35]: 19.9 µM
TGI [36]: > 100 µM
TGI [37]: 50.9 µM
TGI [60]: 32 µM
TGI [38]: 40.5 µM
TGI [40]: 34.8 µM
TGI [41]: 40.6 µM
TGI [42]: 40.6 µM
TGI [61]: 33.6 µM
TGI [43]: 25.2 µM
TGI [44]: 26.4 µM
TGI [46]: 30 µM
TGI [64]: 49.1 µM
TGI [48]: 67.8 µM
TGI [62]: 49.1 µM

Source: PubChem BioAssay (NCI)
